Measurements: the NIST ThermoML archive (doi:10.1016/j.tca.2016.06.023)

Assays:
[1] = xn = mol fraction of the nth substance listed; conditions: 81.5 kPa, Liquid, Vibrating tube method
[2] = refractive index (Na D-line) (dimensionless); xn = mol fraction of the nth substance listed; conditions: 81.5 kPa, Liquid, Standard Abbe refractometry

Brc1ccccc1 [bromobenzene] + O=[N+]([O-])c1ccccc1
Conditions | mass density, 293.15 K [kg/m3] | mass density, 303.15 K [kg/m3] | mass density, 313.15 K [kg/m3] | mass density, 323.15 K [kg/m3] | mass density, 333.15 K [kg/m3] | refractive index, 293.15 K | refractive index, 303.15 K | refractive index, 313.15 K | refractive index, 323.15 K | refractive index, 333.15 K
[1], x1 = 0.0998 | 1232.31 | 1221.95 | 1211.59 | 1201.25 | 1190.87 | – | – | – | – | –
[1], x1 = 0.2013 | 1262.07 | 1251.35 | 1240.6 | 1229.85 | 1219.06 | – | – | – | – | –
[1], x1 = 0.2985 | 1290.56 | 1279.49 | 1268.39 | 1257.29 | 1246.12 | – | – | – | – | –
[1], x1 = 0.3968 | 1319.31 | 1307.88 | 1296.44 | 1284.95 | 1273.45 | – | – | – | – | –
[1], x1 = 0.505 | 1350.9 | 1339.07 | 1327.25 | 1315.36 | 1303.45 | – | – | – | – | –
[1], x1 = 0.5974 | 1377.81 | 1365.65 | 1353.48 | 1341.27 | 1329.01 | – | – | – | – | –
[1], x1 = 0.6987 | 1407.3 | 1394.76 | 1382.18 | 1369.62 | 1357.01 | – | – | – | – | –
[1], x1 = 0.8018 | 1437.33 | 1424.41 | 1411.45 | 1398.53 | 1385.53 | – | – | – | – | –
[1], x1 = 0.8963 | 1464.97 | 1451.69 | 1438.42 | 1425.19 | 1411.84 | – | – | – | – | –
[1], x1 = 1 | 1495.52 | 1481.97 | 1468.41 | 1454.85 | 1441.22 | – | – | – | – | –
[2], x1 = 0.0998 | – | – | – | – | – | 1.55317 | 1.54834 | 1.54352 | 1.53852 | 1.53345
[2], x1 = 0.2013 | – | – | – | – | – | 1.55394 | 1.54905 | 1.54416 | 1.53909 | 1.534
[2], x1 = 0.2985 | – | – | – | – | – | 1.55468 | 1.54973 | 1.54477 | 1.53962 | 1.53452
[2], x1 = 0.3968 | – | – | – | – | – | 1.55542 | 1.55041 | 1.54538 | 1.54015 | 1.53503
[2], x1 = 0.505 | – | – | – | – | – | 1.55622 | 1.55115 | 1.54603 | 1.54072 | 1.53559
[2], x1 = 0.5974 | – | – | – | – | – | 1.5569 | 1.55177 | 1.54658 | 1.5412 | 1.53605
[2], x1 = 0.6987 | – | – | – | – | – | 1.55764 | 1.55245 | 1.54718 | 1.54171 | 1.53654
[2], x1 = 0.8018 | – | – | – | – | – | 1.55838 | 1.55313 | 1.54777 | 1.54223 | 1.53704
[2], x1 = 0.8963 | – | – | – | – | – | 1.55906 | 1.55375 | 1.54831 | 1.54269 | 1.53748
[2], x1 = 1 | – | – | – | – | – | 1.55981 | 1.55442 | 1.5489 | 1.54319 | 1.53742

Brc1ccccc1 [bromobenzene] + Clc1ccccc1
Conditions | mass density, [1] [kg/m3] | refractive index, [2]
293.15 K, x2 = 0 | 1495.52 | 1.55981
293.15 K, x2 = 0.1004 | 1457.81 | 1.55614
293.15 K, x2 = 0.2188 | 1413.03 | 1.55183
293.15 K, x2 = 0.3025 | 1381.12 | 1.54881
293.15 K, x2 = 0.4005 | 1343.53 | 1.54531
293.15 K, x2 = 0.5003 | 1304.91 | 1.54178
293.15 K, x2 = 0.6014 | 1265.46 | 1.53824
293.15 K, x2 = 0.6985 | 1227.24 | 1.53488
293.15 K, x2 = 0.7976 | 1187.96 | 1.53149
293.15 K, x2 = 0.899 | 1147.37 | 1.52802
303.15 K, x2 = 0 | 1481.97 | 1.55442
303.15 K, x2 = 0.1004 | 1444.57 | 1.55075
303.15 K, x2 = 0.2188 | 1400.11 | 1.54645
303.15 K, x2 = 0.3025 | 1368.44 | 1.54341
303.15 K, x2 = 0.4004 | 1331.07 | 1.5399
303.15 K, x2 = 0.5002 | 1292.73 | 1.53635
303.15 K, x2 = 0.6014 | 1253.57 | 1.5328
303.15 K, x2 = 0.6985 | 1215.65 | 1.52943
303.15 K, x2 = 0.7975 | 1176.65 | 1.52602
303.15 K, x2 = 0.8989 | 1136.37 | 1.52252
313.15 K, x2 = 0 | 1468.41 | 1.5489
313.15 K, x2 = 0.1004 | 1431.29 | 1.54525
313.15 K, x2 = 0.2188 | 1387.2 | 1.54094
313.15 K, x2 = 0.3025 | 1355.72 | 1.53791
313.15 K, x2 = 0.4004 | 1318.65 | 1.53439
313.15 K, x2 = 0.5002 | 1280.55 | 1.53084
313.15 K, x2 = 0.6014 | 1241.67 | 1.52729
313.15 K, x2 = 0.6985 | 1204.01 | 1.52391
313.15 K, x2 = 0.7975 | 1165.32 | 1.52049
313.15 K, x2 = 0.8989 | 1125.28 | 1.51697
323.15 K, x2 = 0 | 1454.85 | 1.54319
323.15 K, x2 = 0.1004 | 1418.03 | 1.53956
323.15 K, x2 = 0.2188 | 1374.22 | 1.53528
323.15 K, x2 = 0.3025 | 1342.96 | 1.53225
323.15 K, x2 = 0.4004 | 1306.14 | 1.52874
323.15 K, x2 = 0.5002 | 1268.32 | 1.5252
323.15 K, x2 = 0.6014 | 1229.71 | 1.52165
323.15 K, x2 = 0.6985 | 1192.33 | 1.51827
323.15 K, x2 = 0.7975 | 1153.89 | 1.51484
323.15 K, x2 = 0.8989 | 1114.13 | 1.51133
333.15 K, x2 = 0 | 1441.22 | 1.53742
333.15 K, x2 = 0.1004 | 1404.71 | 1.53383
333.15 K, x2 = 0.2188 | 1361.19 | 1.52957
333.15 K, x2 = 0.3025 | 1330.15 | 1.52657
333.15 K, x2 = 0.4004 | 1293.58 | 1.52308
333.15 K, x2 = 0.5002 | 1256.04 | 1.51956
333.15 K, x2 = 0.6014 | 1217.71 | 1.51602
333.15 K, x2 = 0.6985 | 1180.59 | 1.51266
333.15 K, x2 = 0.7975 | 1142.42 | 1.50924
333.15 K, x2 = 0.8989 | 1102.93 | 1.50574

Clc1ccccc1 [chlorobenzene] + O=[N+]([O-])c1ccccc1
Conditions | mass density, 293.15 K [kg/m3] | mass density, 303.15 K [kg/m3] | mass density, 313.15 K [kg/m3] | mass density, 323.15 K [kg/m3] | mass density, 333.15 K [kg/m3] | refractive index, 293.15 K | refractive index, 303.15 K | refractive index, 313.15 K | refractive index, 323.15 K | refractive index, 333.15 K
[1], x1 = 0.1792 | 1186.15 | 1176.1 | 1166.03 | 1155.95 | 1145.83 | – | – | – | – | –
[1], x1 = 0.2018 | 1184.02 | 1173.95 | 1163.86 | 1153.76 | 1143.62 | – | – | – | – | –
[1], x1 = 0.2994 | 1174.79 | 1164.64 | 1154.47 | 1144.27 | 1134.02 | – | – | – | – | –
[1], x1 = 0.3967 | 1165.55 | 1155.32 | 1145.05 | 1134.75 | 1124.4 | – | – | – | – | –
[1], x1 = 0.491 | 1156.55 | 1146.24 | 1135.88 | 1125.49 | 1115.04 | – | – | – | – | –
[1], x1 = 0.5425 | 1151.59 | 1141.23 | 1130.83 | 1120.39 | 1109.89 | – | – | – | – | –
[1], x1 = 0.6479 | 1141.41 | 1130.96 | 1120.45 | 1109.9 | 1099.31 | – | – | – | – | –
[1], x1 = 0.7553 | 1130.91 | 1120.36 | 1109.75 | 1099.09 | 1088.41 | – | – | – | – | –
[1], x1 = 0.8748 | 1119.07 | 1108.4 | 1097.7 | 1086.93 | 1076.14 | – | – | – | – | –
[1], x1 = 1 | 1106.49 | 1095.71 | 1084.86 | 1073.96 | 1063.01 | – | – | – | – | –
[2], x1 = 0.1792 | – | – | – | – | – | 1.54704 | 1.54217 | 1.53739 | 1.53251 | 1.52761
[2], x1 = 0.2018 | – | – | – | – | – | 1.54638 | 1.5415 | 1.53671 | 1.53184 | 1.52695
[2], x1 = 0.2994 | – | – | – | – | – | 1.54356 | 1.53864 | 1.53383 | 1.52896 | 1.52412
[2], x1 = 0.3967 | – | – | – | – | – | 1.54078 | 1.53584 | 1.531 | 1.52612 | 1.52129
[2], x1 = 0.491 | – | – | – | – | – | 1.53813 | 1.53317 | 1.52829 | 1.52338 | 1.51851
[2], x1 = 0.5425 | – | – | – | – | – | 1.5367 | 1.53172 | 1.52682 | 1.52186 | 1.51697
[2], x1 = 0.6479 | – | – | – | – | – | 1.53381 | 1.52879 | 1.52381 | 1.51876 | 1.51377
[2], x1 = 0.7553 | – | – | – | – | – | 1.53092 | 1.52581 | 1.52072 | 1.51554 | 1.5104
[2], x1 = 0.8748 | – | – | – | – | – | 1.52777 | 1.52252 | 1.51723 | 1.51185 | 1.50652
[2], x1 = 1 | – | – | – | – | – | 1.52455 | 1.51902 | 1.51346 | 1.50781 | 1.50223
